# Assay results published in patent US9156788B2, “TRPV3 modulators” (AbbVie Inc., priority 2010, dated 2015).
# Target: T1, human TRPV3 (Homo sapiens, UniProt Q8NET8)
# T1 construct: expressed in transfected cells
# T1 sequence (Q8NET8 1-790): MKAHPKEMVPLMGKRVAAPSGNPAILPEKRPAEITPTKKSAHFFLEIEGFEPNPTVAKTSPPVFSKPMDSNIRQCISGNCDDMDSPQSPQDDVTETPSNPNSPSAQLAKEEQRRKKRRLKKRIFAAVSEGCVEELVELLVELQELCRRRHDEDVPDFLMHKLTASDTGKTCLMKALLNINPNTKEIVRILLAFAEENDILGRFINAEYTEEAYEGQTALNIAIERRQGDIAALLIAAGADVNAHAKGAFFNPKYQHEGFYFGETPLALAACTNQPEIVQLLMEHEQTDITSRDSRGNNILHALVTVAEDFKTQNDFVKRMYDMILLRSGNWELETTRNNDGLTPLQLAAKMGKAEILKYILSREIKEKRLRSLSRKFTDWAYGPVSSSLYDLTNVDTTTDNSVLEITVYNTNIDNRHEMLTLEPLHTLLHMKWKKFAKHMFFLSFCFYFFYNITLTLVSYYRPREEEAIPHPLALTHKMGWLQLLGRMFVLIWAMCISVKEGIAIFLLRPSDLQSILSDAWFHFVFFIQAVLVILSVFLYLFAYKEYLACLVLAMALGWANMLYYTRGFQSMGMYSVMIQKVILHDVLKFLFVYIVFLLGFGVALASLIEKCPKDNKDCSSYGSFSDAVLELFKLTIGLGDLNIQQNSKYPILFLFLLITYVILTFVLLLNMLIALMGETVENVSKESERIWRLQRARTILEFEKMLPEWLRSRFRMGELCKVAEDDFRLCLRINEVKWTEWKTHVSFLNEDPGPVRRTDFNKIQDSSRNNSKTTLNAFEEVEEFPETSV
# Assay: Calcium flux assay (FLIPR TETRA), inhibition of 2-APB response
# Assay type: cell-based
# Details: recombinant HEK293 cells stably expressing human TRPV3; 2-APB at its EC50
# Experimental: (i) In Vitro Methods-Calcium Flux Assays:
# Experiments were conducted using the FLIPR^TETRA®. On the day prior to the experiment, recombinant HEK293 cells that stably express human and mouse TRPV3 were removed from tissue culture flasks and plated in growth medium at 20,000 cells/well into black-walled clear-bottom 384-well Biocoat™ poly-D-lysine assay plates (BD Biosciences, Bedford, Mass.) using a Multidrop® dispenser (ThermoScientific, Waltham, Mass.). On the day of the experiment, growth medium was removed, and the no-wash FLIPR® Calcium-4 dye (λEX=470-495 nm, λEM=515-575 nm; Molecular Devices, Sunnyvale, Calif.) was added to each well using the Multidrop® dispenser. Cells were incubated for 90-120 minutes in the dark. Compounds were dissolved in DMSO to prepare a 10 mM stock solution. The intensity of the fluorescence was captured and digitally transferred to an interfaced PC. The peak increase in fluorescence over baseline (relative fluorescence units) was calculated and expressed as the percentage of the maximal 2-APB (2-aminoethoxyldiphenyl borate) response (in the absence of compound).
row,Compound,IC50
1,"OC(c1ccccn1)C1(c2cc(F)cc(C(F)(F)F)c2)CCC1 (centres unmarked) [Example 14, {1-[3-fluoro-5-(trifluoromethyl)phenyl]cyclobutyl}(pyridin-2-yl)methanol]",5.1 to 20 µM
2,"CS(=O)(=O)c1ccc(C2(C(O)c3ccccn3)CCC2)cc1 (centres unmarked) [Example 16, {1-[4-(methylsulfonyl)phenyl]cyclobutyl}(pyridin-2-yl)methanol]",5.1 to 20 µM
3,"OC(c1ccccn1)C1(c2ccc(C(F)(F)F)c(F)c2)CCC1 (centres unmarked) [Example 17, {1-[3-fluoro-4-(trifluoromethyl)phenyl]cyclobutyl}(pyridin-2-yl)methanol]",1.1 to 5 µM
4,"OC(c1ccccn1)C1(c2ccccn2)CCC1 (centres unmarked) [Example 19, pyridin-2-yl(1-pyridin-2-ylcyclobutyl)methanol]",5.1 to 20 µM
5,"OC(c1ccccn1)C1(c2cccnc2)CCC1 (centres unmarked) [Example 20, pyridin-2-yl(1-pyridin-3-ylcyclobutyl)methanol]",5.1 to 20 µM
6,"OC(c1ccccn1)C1(c2ccncc2)CCC1 (centres unmarked) [Example 21, pyridin-2-yl(1-pyridin-4-ylcyclobutyl)methanol]",5.1 to 20 µM
7,"OC(c1ccccn1)C1(c2ccc(-c3ccccc3)cc2)CCC1 (centres unmarked) [Example 22, [1-(1,1′-biphenyl-4-yl)cyclobutyl](pyridin-2-yl)methanol]",5.1 to 20 µM
8,"O[C@H](c1ccccn1)C1(c2ccc(C(F)(F)F)cc2F)CCC1 [Example 27, (S)-{1-[2-fluoro-4-(trifluoromethyl)phenyl]cyclobutyl}(pyridin-2-yl)methanol]",0.501 to 1 µM
9,"OC(c1ncccn1)C1(c2ccccc2F)CCC1 (centres unmarked) [Example 32, [1-(2-fluorophenyl)cyclobutyl](pyrimidin-2-yl)methanol]",5.1 to 20 µM
10,"OC(c1ncccn1)C1(c2ccc(F)cc2)CCC1 (centres unmarked) [Example 34, [1-(4-fluorophenyl)cyclobutyl](pyrimidin-2-yl)methanol]",5.1 to 20 µM
11,"O[C@H](c1ncccn1)C1(c2ccc(C(F)(F)F)cc2)CCC1 [Example 41, (S)-pyrimidin-2-yl{1-[4-(trifluoromethyl)phenyl]cyclobutyl}methanol]",5.1 to 20 µM
12,"O[C@@H](c1ncccn1)C1(c2ccc(C(F)(F)F)cc2)CCC1 [Example 42, (R)-pyrimidin-2-yl{1-[4-(trifluoromethyl)phenyl]cyclobutyl}methanol]",1.1 to 5 µM
13,"CC(c1cccc(C(F)(F)F)c1)C1(C(O)c2ccccn2)CCC1 (centres unmarked) [Example 54, pyridin-2-yl(1-{1-[3-(trifluoromethyl)phenyl]ethyl}cyclobutyl)methanol]",5.1 to 20 µM
14,[1-(4-methylbenzyl)cyclobutyl](pyridin-2-yl)methanol [Example 52],1.1 to 5 µM
